Results reported in EPA's ToxRefDB 2.

Tests used:
rat [1] = details: Other (NonGuideline or Guideline Not Listed), sprague dawley, Oral, Gavage/Intubation, dose end: 7 day, group: cannot be grouped
rat [2] = details: Carcinogenicity, fischer, Oral, Feed, dose end: 78 week, group: systemic
mouse [3] = details: Carcinogenicity, b6c3f1, Oral, Feed, dose end: 78 week, group: systemic
mouse [4] = details: Subchronic oral toxicity in rodents, b6c3f1, Feed, dose end: 8 week, group: systemic
rat [5] = details: Subchronic oral toxicity in rodents, fischer, Feed, dose end: 8 week, group: systemic
mouse [6] = details: Carcinogenicity, b6c3f1, Oral, Feed, dose end: 2 year, group: systemic
mouse [7] = details: Subchronic oral toxicity in rodents, b6c3f1, Feed, dose end: 13 week, group: systemic, systemic / in life observation / body weight / body weight + systemic / in life observation / food consumption / food consumption
rat [8] = details: Subchronic oral toxicity in rodents, fischer, Feed, dose end: 13 week, group: systemic
rat [9] = details: Combined chronic toxicity/carcinogenicity, fischer, Oral, Feed, dose end: 2 year, group: systemic
dog [10] = details: Subchronic oral toxicity in dogs, beagle, Capsule, dose end: 90 day, group: systemic, systemic / clinical chemistry / alanine aminotransferase (alt/sgpt) / alanine aminotransferase (alt/sgpt) + systemic / clinical chemistry / …
rat [11] = details: Combined chronic toxicity/carcinogenicity, sprague dawley, Oral, Feed, dose end: 24 month, group: systemic
rat [12] = details: Multigenerational reproductive toxicity study, sprague dawley, Oral, Feed, dose end: 2 generation
rabbit = details: Prenatal developmental toxicity study, new zealand white, Oral, Gavage/Intubation, dose end: 19 GD
rat [13] = details: Prenatal developmental toxicity study, wistar, Oral, Gavage/Intubation, dose end: 16 GD
dog [14] = details: Chronic toxicity, beagle, Oral, Capsule, dose end: 52 week, group: systemic
rat [15] = details: Subchronic oral toxicity in rodents, sprague dawley, Feed, dose end: 90 day, group: systemic
rat [16] = details: Peri- and post-natal toxicity study (Segment III); long evans; Injection; Subcutaneous; dose end: 3 PND; group: developmental; developmental / developmental landmark / vaginal opening / vaginal opening
mouse [17] = details: Prenatal developmental toxicity study, cd1, Oral, Gavage/Intubation, dose end: 15 GD
rat [18] = details: Carcinogenicity, fischer, Oral, Water, dose end: 103 week, group: systemic
rat [19] = details: Multigenerational reproductive toxicity study, sprague dawley, Oral, Water, dose end: 2 generation
mouse [20] = details: Carcinogenicity, b6c3f1, Oral, Water, dose end: 103 week, group: systemic
[21] = systemic / clinical chemistry / alanine aminotransferase (alt/sgpt) / alanine aminotransferase (alt/sgpt) + systemic / clinical chemistry / …
[22] = systemic / in life observation / body weight / body weight gain + systemic / in life observation / clinical signs / defecation + systemic / …
[23] = systemic / in life observation / body weight / body weight
[24] = systemic / in life observation / body weight / body weight + systemic / pathology microscopic / urinary bladder / carcinoma + systemic / …
[25] = systemic / in life observation / body weight / body weight + systemic / pathology microscopic / gallbladder / hyperplasia
[26] = systemic / in life observation / body weight / body weight + systemic / pathology microscopic / gallbladder / hyperplasia + systemic / …
[27] = systemic / in life observation / body weight / body weight + systemic / in life observation / mortality / mortality
[28] = systemic / in life observation / body weight / body weight + systemic / in life observation / food consumption / food consumption
[29] = systemic / in life observation / food consumption / food consumption
[30] = systemic / in life observation / food consumption / food consumption + systemic / pathology microscopic / lung / adenoma/carcinoma combined…
[31] = systemic / hematology / platelet / platelet
[32] = systemic / pathology microscopic / adrenal gland / vacuolization + systemic / pathology microscopic / liver / fatty change + systemic / …
[33] = group: offspring, systemic / in life observation / body weight / offspring (pup) weight gain + systemic / pathology gross / liver / discolored + systemic / …
[34] = group: parental, systemic / organ weight / liver / nos + systemic / pathology gross / liver / accentuated lobular pattern + systemic / pathology gross / …
[35] = group: reproductive, reproductive / offspring survival early / litter size / litter size
[36] = group: developmental, systemic / in life observation / body weight / fetal weight
[37] = group: developmental, systemic / in life observation / body weight / fetal weight + developmental / developmental malformation / bone / hole(s)
[38] = group: maternal, systemic / in life observation / body weight / body weight gain + systemic / in life observation / food consumption / food consumption
[39] = group: developmental, developmental / developmental malformation / bone / delayed ossification + developmental / developmental malformation / bone / full …
[40] = group: maternal, reproductive / offspring survival early / offspring survival early other / NOS + systemic / in life observation / body weight / body weight …
[41] = systemic / organ weight / liver / absolute + systemic / clinical chemistry / alanine aminotransferase (alt/sgpt) / alanine aminotransferase…
[42] = systemic / clinical chemistry / aminopyrine-n-demethylase / aminopyrine-n-demethylase
[43] = group: developmental, developmental / developmental malformation / mouth / jaw / cleft palate + systemic / in life observation / body weight / fetal weight
[44] = group: maternal, systemic / in life observation / body weight / body weight + systemic / in life observation / body weight / body weight gain + systemic / in…
[45] = systemic / in life observation / body weight / body weight + systemic / in life observation / water consumption / water consumption + …
[46] = systemic / pathology microscopic / adrenal gland / pheochromocytoma nos + systemic / pathology microscopic / bone marrow / leukemia + …
[47] = group: offspring, developmental / developmental landmark / preputial separation / preputial separation + systemic / in life observation / body weight / …
[48] = group: parental, systemic / in life observation / body weight / body weight + systemic / in life observation / body weight / body weight gain + systemic / in…
[49] = group: parental, systemic / in life observation / clinical signs / red or crusty deposits around eyes, ears, nose, or mouth + systemic / in life observation…
[50] = group: reproductive, reproductive / offspring survival early / dead fetuses / dead fetuses
[51] = systemic / in life observation / body weight / body weight + systemic / in life observation / water consumption / water consumption
[52] = systemic / pathology microscopic / uterus / interstitial stromal tumor + systemic / in life observation / body weight / body weight + …

SMILES: CCOc1cccc(-n2cc(C(=O)N3CCN(c4cc(C(=O)[O-])c5ccccc5c4)CC3)nc2-c2ccc(C)cc2)c1.[Na+]
- LOAEL (rat [1]; [21]): > 500 mg/kg/day
- NOAEL (rat [1]; [21]): ≥ 500 mg/kg/day
- LEL (rat [1]; [22]): 10 mg/kg/day
- NEL (rat [1]; [22]): < 10 mg/kg/day

SMILES: Nc1ccc(Cl)cc1N [4-Chloro-1,2-diaminobenzene]
- LOAEL (rat [2]; [23]): 250 mg/kg/day
- NOAEL (rat [2]; [23]): < 250 mg/kg/day
- LEL (rat [2]; [24]): 250 mg/kg/day
- NEL (rat [2]; [24]): < 250 mg/kg/day
- LOAEL (mouse [3]; [25]): 1050 mg/kg/day
- NOAEL (mouse [3]; [25]): < 1050 mg/kg/day
- LEL (mouse [3]; [26]): 1050 mg/kg/day
- NEL (mouse [3]; [26]): < 1050 mg/kg/day
- LEL (mouse [4]; [23]): 1500 mg/kg/day
- LOAEL (mouse [4]; [23]): 1500 mg/kg/day
- NEL (mouse [4]; [27]): 150 mg/kg/day
- NOAEL (mouse [4]; [27]): 150 mg/kg/day
- LEL (rat [5]; [23]): 500 mg/kg/day
- LOAEL (rat [5]; [23]): 500 mg/kg/day
- NEL (rat [5]; [27]): 50 mg/kg/day
- NOAEL (rat [5]; [27]): 50 mg/kg/day

SMILES: Oc1cccc2cccnc12 [8-Hydroxyquinoline]
- LOAEL (mouse [6]; [28]): > 396 mg/kg/day
- NOAEL (mouse [6]; [28]): ≥ 396 mg/kg/day
- LEL (mouse [6]; [29]): 217 mg/kg/day
- NEL (mouse [6]; [29]): < 217 mg/kg/day
- LEL (mouse [7]): 900 mg/kg/day
- LOAEL (mouse [7]): 900 mg/kg/day
- NEL (mouse [7]): 450 mg/kg/day
- NOAEL (mouse [7]): 450 mg/kg/day
- LOAEL (rat [8]; [28]): 300 mg/kg/day
- NEL (rat [8]; [28]): 75 mg/kg/day
- NOAEL (rat [8]; [28]): 150 mg/kg/day
- LEL (rat [8]; [29]): 150 mg/kg/day
- LEL (rat [9]; [29]): 73 mg/kg/day
- NEL (rat [9]; [29]): < 73 mg/kg/day
- LOAEL (rat [9]; [30]): > 143 mg/kg/day
- NOAEL (rat [9]; [30]): ≥ 143 mg/kg/day

SMILES: CCCCC(O)(Cn1cncn1)c1ccc(Cl)cc1Cl (configuration not stated) [Hexaconazole]
- LEL (dog [10]): 25 mg/kg/day
- LOAEL (dog [10]): 25 mg/kg/day
- NEL (dog [10]): 5 mg/kg/day
- NOAEL (dog [10]): 5 mg/kg/day
- LEL (rat [11]; [31]): 0.47 mg/kg/day
- NEL (rat [11]; [31]): < 0.47 mg/kg/day
- LOAEL (rat [11]; [32]): 4.7 mg/kg/day
- NOAEL (rat [11]; [32]): 0.47 mg/kg/day
- LEL (rat [12]; [33]): 50 mg/kg/day
- LOAEL (rat [12]; [33]): 50 mg/kg/day
- NEL (rat [12]; [33]): 5 mg/kg/day
- NOAEL (rat [12]; [33]): 5 mg/kg/day
- LOAEL (rat [12]; [34]): 50 mg/kg/day
- NEL (rat [12]; [34]): 1 mg/kg/day
- NOAEL (rat [12]; [34]): 5 mg/kg/day
- LEL (rat [12]; group: parental, systemic / pathology microscopic / liver / fatty change): 5 mg/kg/day
- LEL (rat [12]; [35]): 50 mg/kg/day
- LOAEL (rat [12]; [35]): 50 mg/kg/day
- NEL (rat [12]; [35]): 5 mg/kg/day
- NOAEL (rat [12]; [35]): 5 mg/kg/day
- LEL (rabbit; [36]): 50 mg/kg/day
- LOAEL (rabbit; [36]): 50 mg/kg/day
- NEL (rabbit; [37]): 25 mg/kg/day
- NOAEL (rabbit; [37]): 25 mg/kg/day
- LOAEL (rabbit; group: maternal, systemic / in life observation / body weight / body weight gain): 100 mg/kg/day
- LEL (rabbit; [38]): 100 mg/kg/day
- NEL (rabbit; [38]): 50 mg/kg/day
- NOAEL (rabbit; [38]): 50 mg/kg/day
- LEL (rat [13]; [39]): 2.5 mg/kg/day
- LOAEL (rat [13]; [39]): 2.5 mg/kg/day
- NEL (rat [13]; [39]): < 2.5 mg/kg/day
- NOAEL (rat [13]; [39]): < 2.5 mg/kg/day
- LEL (rat [13]; [40]): 250 mg/kg/day
- LOAEL (rat [13]; [40]): 250 mg/kg/day
- NEL (rat [13]; [40]): 25 mg/kg/day
- NOAEL (rat [13]; [40]): 25 mg/kg/day
- NEL (dog [14]; [41]): 2 mg/kg/day
- NOAEL (dog [14]; [41]): 2 mg/kg/day
- LOAEL (dog [14]; systemic / organ weight / liver / absolute + systemic / pathology microscopic / liver / lipid deposition): 10 mg/kg/day
- LEL (dog [14]; systemic / organ weight / liver / absolute + systemic / pathology microscopic / liver / lipid deposition + systemic / clinical chemistry / …): 10 mg/kg/day
- LEL (rat [15]; [42]): 2.5 mg/kg/day
- NEL (rat [15]; [42]): < 2.5 mg/kg/day
- NOAEL (rat [15]; systemic / pathology microscopic / adrenal gland / vacuolization + systemic / clinical chemistry / alanine aminotransferase (alt/sgpt) / …): 2.5 mg/kg/day
- LOAEL (rat [15]; systemic / pathology microscopic / adrenal gland / vacuolization + systemic / pathology microscopic / liver / fatty change): 25 mg/kg/day

SMILES: CC#C[C@]1(O)CC[C@H]2[C@@H]3CCC4=CC(=O)CCC4=C3[C@@H](c3ccc(N(C)C)cc3)C[C@@]21C [Mifepristone]
- LEL (rat [16]): 200 ppm
- LOAEL (rat [16]): > 600 ppm
- NEL (rat [16]): < 200 ppm
- NOAEL (rat [16]): ≥ 600 ppm

SMILES: Oc1ccccc1 [Phenol]
- LEL (mouse [17]; [43]): 280 mg/kg/day
- LOAEL (mouse [17]; [43]): > 280 mg/kg/day
- NEL (mouse [17]; [43]): 140 mg/kg/day
- NOAEL (mouse [17]; [43]): ≥ 280 mg/kg/day
- LEL (mouse [17]; [44]): 280 mg/kg/day
- LOAEL (mouse [17]; [44]): > 280 mg/kg/day
- NEL (mouse [17]; [44]): 140 mg/kg/day
- NOAEL (mouse [17]; [44]): ≥ 280 mg/kg/day
- LOAEL (rat [18]; [45]): > 250 mg/kg/day
- NOAEL (rat [18]; [45]): ≥ 250 mg/kg/day
- LEL (rat [18]; [46]): 125 mg/kg/day
- NEL (rat [18]; [46]): < 125 mg/kg/day
- LEL (rat [19]; [47]): 318 mg/kg/day
- LOAEL (rat [19]; [47]): > 318 mg/kg/day
- NEL (rat [19]; [47]): 69.8 mg/kg/day
- NOAEL (rat [19]; [47]): ≥ 318 mg/kg/day
- LOAEL (rat [19]; [48]): > 301 mg/kg/day
- NOAEL (rat [19]; [48]): ≥ 301 mg/kg/day
- LEL (rat [19]; [49]): 13.5 mg/kg/day
- NEL (rat [19]; [49]): < 13.5 mg/kg/day
- LEL (rat [19]; [50]): 318 mg/kg/day
- LOAEL (rat [19]; [50]): > 318 mg/kg/day
- NEL (rat [19]; [50]): 69.8 mg/kg/day
- NOAEL (rat [19]; [50]): ≥ 318 mg/kg/day
- LEL (mouse [20]; [51]): 375 mg/kg/day
- NEL (mouse [20]; [51]): < 375 mg/kg/day
- LOAEL (mouse [20]; [52]): > 750 mg/kg/day
- NOAEL (mouse [20]; [52]): ≥ 750 mg/kg/day
